Patent US20260265329A1, “POLYPEPTIDE AND DERIVATIVE THEREOF, COMPOSITION, AND USE THEREOF” (HANGZHOU SCIWIND BIOSCIENCES CO., LTD., priority 2023, published 2026)
Starred links: 1 amine or outer side, 2 acyl side, 3 side chain; linkers in the order of their positions; H or OH if unused. Non-standard residues stand in square brackets, D forms with d. Residues, ends and D or L forms follow the SMILES beside them. *: point of attachment. C20 diacid = O=C(O)CCCCCCCCCCCCCCCCCCC(=O)*; C18 diacid = O=C(O)CCCCCCCCCCCCCCCCC(=O)*; γGlu = O=C(O)[C@H](CCC(=O)[*:2])N[*:1]; Hyp = O=C(O)[C@@H]1C[C@@H](O)CN1

Assays:
[1] = molecular target: T1, human amylin receptors (Homo sapiens, UniProt O60896+P30988); experiment: Luciferase assay in stably transfected amylin receptor/CRE-luc CHO cell line; assay type: cell-based; details: for Relative activity: EC50 ratio of Cagrilintide to the compound, Cagrilintide 100%; for EC50: amylin receptor/CRE-luc CHO cells, 24 hours incubation, luminescence
T1 construct: host or cells: CHO-K1/Ga15/AMY3 cells, further stably transfected with a CRE-luciferase plasmid
T1 sequence (P30988 25-474): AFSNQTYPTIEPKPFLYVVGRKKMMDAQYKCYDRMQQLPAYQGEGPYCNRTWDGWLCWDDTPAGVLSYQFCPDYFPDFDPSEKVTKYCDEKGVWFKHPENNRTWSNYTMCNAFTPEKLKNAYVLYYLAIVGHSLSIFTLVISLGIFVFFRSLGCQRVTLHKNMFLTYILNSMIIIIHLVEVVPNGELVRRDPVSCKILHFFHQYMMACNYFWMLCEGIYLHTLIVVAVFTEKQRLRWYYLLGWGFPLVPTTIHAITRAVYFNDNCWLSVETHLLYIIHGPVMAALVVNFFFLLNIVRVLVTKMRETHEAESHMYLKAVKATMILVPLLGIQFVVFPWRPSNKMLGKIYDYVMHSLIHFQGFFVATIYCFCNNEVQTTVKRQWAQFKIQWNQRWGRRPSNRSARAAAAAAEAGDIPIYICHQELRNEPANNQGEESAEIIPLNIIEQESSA
T1 sequence (O60896 24-148 partner): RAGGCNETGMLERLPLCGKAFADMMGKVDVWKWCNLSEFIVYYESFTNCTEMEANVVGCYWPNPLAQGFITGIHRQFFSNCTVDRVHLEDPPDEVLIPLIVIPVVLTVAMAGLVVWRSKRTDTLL

[2] = Heat accelerated stability assay, 40° C., detection on 7 d and 28 d; assay type: physicochemical; details: for Purity from the reversed phase chromatography-214 nm, 0 d / Purity from the reversed phase chromatography-214 nm, 7 d / Purity from the reversed phase chromatography-214 nm, 28 d: 1 mg/mL, pH about 7.4, 40° C.; for Change (7 d − 0 d): purity on 7 d − purity on 0 d; for Change (7 d − 0 d) / Change (28 d − 0 d): 40° C., pH about 7.4; for Change (28 d − 0 d): purity on 28 d − purity on 0 d
Method: The derivatives (1 mg/mL) were mixed with sodium dihydrogen phosphate (1.42 mg/mL) and dissolved in ultrapure water. After adjusting pH to about 7.4 with hydrochloric acid/sodium hydroxide, the solution was filtered into a sterilized vial in a clean bench using a 0.22 μm sterile filter. The vial was then capped and placed into the stability test chamber at 40° C. Detections were made on Days 7 (7d) and 28 (28d), and during the assay, changes in the characteristics and properties of the polypeptides were observed and recorded. The sample was then centrifuged for 3 min at 10000 rpm at 4° C., and the supernatant was transferred to a liquid phase sample vial for detecting the concentration and purity of the polypeptides using liquid phase chromatography described as below.
Conditions of the reversed phase chromatography Flow rate: 1.0 mL/min; Autosampler temperature: 15° C.; Column temperature: 25° C.; Detection wavelength: 214 nm; Mobile phase A: 100% H2O+0.05% TFA; Mobile phase B: 100% ACN; and Gradient of elution listed in Table 4: […]

Molecule	Relative activity [1] [%]	EC50 [1] [nM]	Purity from the reversed phase chromatography-214 nm, 0 d [2]	Purity from the reversed phase chromatography-214 nm, 7 d [2]	Purity from the reversed phase chromatography-214 nm, 28 d [2]	Change (7 d − 0 d) [2]	Change (28 d − 0 d) [2]	Purity from the reversed phase chromatography-214 nm, 0 d ([2]; in % (unit assumed))	Purity from the reversed phase chromatography-214 nm, 7 d ([2]; in % (unit assumed))	Change (28 d − 0 d) ([2]; in % (unit assumed))
M10: ASQLSTAVLQRLADFLRHFTDRDRDILPPTNVGSNTP-NH2 (SEQ ID No. 10), N-terminal side chain C20 diacid + γGlu ({C20 diacid-γGlu}-ASQLSTAVLQRLADFLRHFTDRDRDILPPTNVGSNTP-NH2; SMILES CC[C@H](C)[C@H](NC(=O)[C@H](CC(=O)O)NC(=O)[C@H](CCCNC(=N)N)NC(=O)[C@H](CC(=O)O)NC(=O)[C@H](CCCNC(=N)N)NC(=O)[C@H](CC(=O)O)NC(=O)[C@@H](NC(=O)[C@H](Cc1ccccc1)NC(=O)[C@H](Cc1c[nH]cn1)NC(=O)[C@H](CCCNC(=N)N)NC(=O)[C@H](CC(C)C)NC(=O)[C@H](Cc1ccccc1)NC(=O)[C@H](CC(=O)O)NC(=O)[C@H](C)NC(=O)[C@H](CC(C)C)NC(=O)[C@H](CCCNC(=N)N)NC(=O)[C@H](CCC(N)=O)NC(=O)[C@H](CC(C)C)NC(=O)[C@@H](NC(=O)[C@H](C)NC(=O)[C@@H](NC(=O)[C@H](CO)NC(=O)[C@H](CC(C)C)NC(=O)[C@H](CCC(N)=O)NC(=O)[C@H](CO)NC(=O)[C@H](C)NC(=O)CC[C@H](NC(=O)CCCCCCCCCCCCCCCCCCC(=O)O)C(=O)O)[C@@H](C)O)C(C)C)[C@@H](C)O)C(=O)N[C@@H](CC(C)C)C(=O)N1CCC[C@H]1C(=O)N1CCC[C@H]1C(=O)N[C@H](C(=O)N[C@@H](CC(N)=O)C(=O)N[C@H](C(=O)NCC(=O)N[C@@H](CO)C(=O)N[C@@H](CC(N)=O)C(=O)N[C@H](C(=O)N1CCC[C@H]1C(N)=O)[C@@H](C)O)C(C)C)[C@@H](C)O)					93.8%	0.16%		94.73	94.89	−0.93
CC[C@H](C)[C@H](NC(=O)[C@H](CC(=O)O)NC(=O)[C@H](CCCNC(=N)N)NC(=O)[C@H](CC(=O)O)NC(=O)[C@H](CCCNC(=N)N)NC(=O)[C@H](CC(=O)O)NC(=O)[C@@H](NC(=O)[C@H](Cc1ccccc1)NC(=O)[C@H](Cc1c[nH]cn1)NC(=O)[C@H](CCCNC(=N)N)NC(=O)[C@H](CC(C)C)NC(=O)[C@H](Cc1ccccc1)NC(=O)[C@H](CC(=O)O)NC(=O)[C@H](C)NC(=O)[C@H](CC(C)C)NC(=O)[C@H](CCCNC(=N)N)NC(=O)[C@H](CCC(N)=O)NC(=O)[C@@H](NC(=O)[C@H](C)NC(=O)[C@H](C)NC(=O)[C@@H](NC(=O)[C@H](CO)NC(=O)[C@H](CC(C)C)NC(=O)[C@H](CCC(N)=O)NC(=O)[C@H](CO)NC(=O)[C@H](C)NC(=O)CC[C@H](NC(=O)CCCCCCCCCCCCCCCCC(=O)O)C(=O)O)[C@@H](C)O)[C@@H](C)O)[C@@H](C)O)C(=O)N[C@@H](CC(C)C)C(=O)N1CCC[C@H]1C(=O)N1CCC[C@H]1C(=O)N[C@H](C(=O)N[C@@H](CC(N)=O)C(=O)N[C@H](C(=O)NCC(=O)N[C@@H](CO)C(=O)N[C@@H](CC(N)=O)C(=O)N[C@H](C(=O)N1CCC[C@H]1C(N)=O)[C@@H](C)O)C(C)C)[C@@H](C)O [M22] ({C18 diacid-γGlu}-ASQLSTAATQRLADFLRHFTDRDRDILPPTNVGSNTP-NH2)	198	0.016								
CC[C@H](C)[C@H](NC(=O)[C@@H]1CCCN1C(=O)[C@H](CCCCN)NC(=O)[C@H](CC(C)C)NC(=O)[C@H](CC(N)=O)NC(=O)[C@H](CC(N)=O)NC(=O)[C@H](CO)NC(=O)[C@H](CO)NC(=O)[C@H](Cc1c[nH]cn1)NC(=O)[C@H](CCCNC(=N)N)NC(=O)[C@H](CC(C)C)NC(=O)[C@H](Cc1ccccc1)NC(=O)[C@H](CC(=O)O)NC(=O)[C@H](C)NC(=O)[C@H](CC(C)C)NC(=O)[C@H](CCCNC(=N)N)NC(=O)[C@H](CCC(N)=O)NC(=O)[C@@H](NC(=O)[C@H](C)NC(=O)[C@H](C)NC(=O)[C@@H](NC(=O)[C@H](CO)NC(=O)[C@H](CC(C)C)NC(=O)[C@H](CCC(N)=O)NC(=O)[C@H](CO)NC(=O)[C@H](C)NC(=O)[C@H](CCC(=O)O)NC(=O)CCCCCCCCCCCCCCCCCCC(=O)O)[C@@H](C)O)[C@@H](C)O)C(=O)N[C@@H](CC(C)C)C(=O)N1CCC[C@H]1C(=O)N1CCC[C@H]1C(=O)N[C@H](C(=O)N[C@@H](CC(N)=O)C(=O)N[C@H](C(=O)NCC(=O)N[C@@H](CO)C(=O)N[C@@H](CC(N)=O)C(=O)N[C@H](C(=O)N1C[C@H](O)C[C@H]1C(N)=O)[C@@H](C)O)C(C)C)[C@@H](C)O [M26] ({C20 diacid}-EASQLSTAATQRLADFLRHSSNNLKPILPPTNVGSNT[Hyp]-NH2)	103	0.049								

Second part, led by results:

Relative activity [1] [%]	EC50 [1] [nM]	Purity from the reversed phase chromatography-214 nm, 0 d [2]	Purity from the reversed phase chromatography-214 nm, 7 d [2]	Purity from the reversed phase chromatography-214 nm, 28 d [2]	Change (7 d − 0 d) [2]	Change (28 d − 0 d) [2]	Molecule	Purity from the reversed phase chromatography-214 nm, 0 d ([2]; in % (unit assumed))	Purity from the reversed phase chromatography-214 nm, 7 d ([2]; in % (unit assumed))	Change (28 d − 0 d) ([2]; in % (unit assumed))
84	0.031	92.36	91.35	91.34	−1.01	−1.02	CC[C@H](C)[C@H](NC(=O)[C@@H]1CCCN1C(=O)[C@H](CCCCN)NC(=O)[C@H](CC(C)C)NC(=O)[C@H](CC(N)=O)NC(=O)[C@H](CC(N)=O)NC(=O)[C@H](CO)NC(=O)[C@H](CO)NC(=O)[C@H](Cc1c[nH]cn1)NC(=O)[C@H](CCCNC(=N)N)NC(=O)[C@H](CC(C)C)NC(=O)[C@H](Cc1ccccc1)NC(=O)[C@H](CC(=O)O)NC(=O)[C@H](C)NC(=O)[C@H](CC(C)C)NC(=O)[C@H](CCCNC(=N)N)NC(=O)[C@H](CCC(N)=O)NC(=O)[C@@H](NC(=O)[C@H](C)NC(=O)[C@H](C)NC(=O)[C@@H](NC(=O)[C@H](CO)NC(=O)[C@H](CC(C)C)NC(=O)[C@H](CCC(N)=O)NC(=O)[C@H](CO)NC(=O)[C@H](C)NC(=O)CC[C@H](NC(=O)CCCCCCCCCCCCCCCCCCC(=O)O)C(=O)O)[C@@H](C)O)[C@@H](C)O)C(=O)N[C@@H](CC(C)C)C(=O)N1CCC[C@H]1C(=O)N1CCC[C@H]1C(=O)N[C@H](C(=O)N[C@@H](CC(N)=O)C(=O)N[C@H](C(=O)NCC(=O)N[C@@H](CO)C(=O)N[C@@H](CC(N)=O)C(=O)N[C@H](C(=O)N1C[C@H](O)C[C@H]1C(N)=O)[C@@H](C)O)C(C)C)[C@@H](C)O [M5] ({C20 diacid-γGlu}-ASQLSTAATQRLADFLRHSSNNLKPILPPTNVGSNT[Hyp]-NH2)			
68	0.038	85.15	85.16	85.44	0.01	0.29	CC[C@H](C)[C@H](NC(=O)[C@@H]1CCCN1C(=O)[C@H](CCCCN)NC(=O)[C@H](CC(C)C)NC(=O)[C@H](CC(N)=O)NC(=O)[C@H](CC(N)=O)NC(=O)[C@H](CO)NC(=O)[C@H](CO)NC(=O)[C@H](Cc1c[nH]cn1)NC(=O)[C@H](CCCNC(=N)N)NC(=O)[C@H](CC(C)C)NC(=O)[C@H](Cc1ccccc1)NC(=O)[C@H](CC(=O)O)NC(=O)[C@H](C)NC(=O)[C@H](CC(C)C)NC(=O)[C@H](CCCNC(=N)N)NC(=O)CNC(=O)[C@H](CC(C)C)NC(=O)[C@@H](NC(=O)[C@H](C)NC(=O)[C@@H](NC(=O)[C@H](CO)NC(=O)[C@H](CC(C)C)NC(=O)[C@H](CCC(N)=O)NC(=O)[C@H](CO)NC(=O)[C@H](C)NC(=O)CC[C@H](NC(=O)CCCCCCCCCCCCCCCCCCC(=O)O)C(=O)O)[C@@H](C)O)C(C)C)C(=O)N[C@@H](CC(C)C)C(=O)N1CCC[C@H]1C(=O)N1CCC[C@H]1C(=O)N[C@H](C(=O)N[C@@H](CC(N)=O)C(=O)N[C@H](C(=O)NCC(=O)N[C@@H](CO)C(=O)N[C@@H](CC(N)=O)C(=O)N[C@H](C(=O)N1C[C@H](O)C[C@H]1C(N)=O)[C@@H](C)O)C(C)C)[C@@H](C)O [M2] ({C20 diacid-γGlu}-ASQLSTAVLGRLADFLRHSSNNLKPILPPTNVGSNT[Hyp]-NH2)			
